Format in all cases: cell-based
Assay [1] addresses T1, Human GPR40 (Homo sapiens, UniProt O14842). Put plainly: Inositol phosphate turnover (IP1) assay in HEK cells stably expressing human GPR40. The settings on record: HEK cells stably expressing human GPR40, 3H-inositol labeling, 60 min compound incubation. Here is the method: (§1) Human and mouse GPR40 stable cell-lines were generated in CHO cells stably expressing NFAT BLA (Beta-lactamase). A human GPR40 stable cell-line was generated in HEK cells stably expressing the aequorin expressing reporter. The expression plasmids were transfected using lipofectamine, LIFE TECHNOLOGIES (Carlsbad, Calif.), following manufacturer's instructions. Stable cell-lines were generated following drug selection.
(§2) The assay is performed in a 96-well format. HEK cells stably expressing human GPR40 are plated to be 60-80% confluent within 72 h. After 72 h, the plates are aspirated and the cells washed with inositol-free DMEM (ICN). The wash media is replaced with 150 μL of 3H-inositol labeling media (inositol-free media containing 0.4% human albumin or 0.4% mouse albumin, 1× pen/strep antibiotics, glutamine, 25 mM HEPES to which is added 3H-myo-inositol NEN #NET114A 1 mCi/mL, 25 Ci/mmol diluted 1:150 in loading media with a final specific radioactivity of 1 μCi/150 μL). Alternatively, the human and mouse albumin can be added after the overnight labeling step before the addition of LiCl.
The assay is typically run the next day after 18 h labeling. On the day of the assay, 5 μL of 300 mM LiCl is added to all wells and incubated at 37 degrees for 20 min. […] Beads are allowed to settle and the plates are counted in the Wallac MICROBETA instrument. […]

Assay [2] deals with T1, Human GPR40. The assay is described as follows: FLIPR assay: agonist-induced calcium mobilization in GPR40/CHO NFAT BLA cells. The arrangement: expressed in transfected cells; host or cells: CHO cells stably expressing NFAT BLA (beta-lactamase).
Source text: as §1
FLIPR (Fluorimetric Imaging Plate Reader, Molecular Devices) assays were performed to measure agonist-induced calcium mobilization of the stable clones. For the FLIPR assay, one day before assay, GPR40/CHO NFAT BLA cells were seeded into black-wall-clear-bottom 384-well plates (Costar) at 1.4×10e4 cells/20 μL medium/well. The cells were incubated with 20 μl/well of the assay buffer (HBSS, 0.1% BSA, 20 mM HEPES, 2.5 mM probenecid, pH 7.4) containing 8 μM fluo-4, AM, 0.08% pluronic acid at room temperature for 100 minutes. Fluorescence output was measured using FLIPR. Compounds were dissolved in DMSO and diluted to desired concentrations with assay buffer. 13.3 μL/well of compound solution was added. The activities of the compounds in the examples have EC50 (effective concentration of compound to afford 50% of the maximum observed fluorescence) values listed in Table I.

The target in assay [3] is T1, Human GPR40. The assay is described as follows: Inositol phosphate turnover (IP1) assay in HEK cells stably expressing human GPR40. Also on record: expressed in transfected cells. The settings on record: HEK cells stably expressing human GPR40, 3H-inositol labeling, 60 min compound incubation. As for the experimental part:
as §1, §2
The assay is typically run the next day after 18 h labeling. On the day of the assay, 5 μL of 300 mM LiCl is added to all wells and incubated at 37 degrees for 20 min. 0.75 μL of 200× compounds are added and incubated with the cells for 60 min at 37 degrees. The media is then aspirated off and the assay terminated with the addition of 60 μL 10 mM formic acid. The cells are lysed for 60 min at room temperature. 15-30 μL of lysate is mixed with 70 μL/1 mg YSi SPA beads AMERSHAM (United Kingdom) in clear bottom Isoplates. The plates are shaken for 2 h at room temperature. Beads are allowed to settle and the plates are counted in the Wallac MICROBETA instrument. The activities of the compounds in the examples have EC50 (effective concentration of compound to afford 50% of the maximum observed […]) values listed in Table I.

Structures can show the parent of a compound that is named as a salt.

T1 sequence (O14842 whole entry): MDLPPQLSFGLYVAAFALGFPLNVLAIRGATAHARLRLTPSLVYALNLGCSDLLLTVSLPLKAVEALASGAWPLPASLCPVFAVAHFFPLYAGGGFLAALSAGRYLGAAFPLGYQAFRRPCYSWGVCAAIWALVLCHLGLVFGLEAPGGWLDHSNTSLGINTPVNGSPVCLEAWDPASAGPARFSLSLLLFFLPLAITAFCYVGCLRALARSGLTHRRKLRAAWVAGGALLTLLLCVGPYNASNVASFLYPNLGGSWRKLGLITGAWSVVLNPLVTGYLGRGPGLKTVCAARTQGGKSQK

Regarding `CS(=O)(=O)CCCOc1ncc(-c2ccc(F)c(COc3ccc4c(c3)C[C@H]3[C@H](C(=O)O)[C@@H]43)c2)c(C(F)(F)F)n1` [Example 33], the values for the EC50 at Human GPR40 [1] and on Human GPR40 [2] were 6.5 nM and 30.7 nM, respectively.

Take `Cc1nc(N2[C@@H]3CC[C@H]2CC(O)C3)ccc1-c1ccc(F)c(COc2ccc3c(c2)C[C@H]2[C@H](C(=O)O)[C@@H]32)c1` (stereo partly drawn) [Example 39, (1S,1aS,6aR)-4-((2-fluoro-5-(6-((1R,5S)-3-hydroxy-8-azabicyclo[3.2.1]octan-8-yl)-2-methylpyridin-3-yl)benzyl)oxy)-1,1a,6,6a-tetrahydrocyclopropa[a]indene-1-carboxylic acid]: the values for the EC50 at Human GPR40 [3] and at Human GPR40 [2] were 26 nM and 47.6 nM, respectively.

Take `Cc1nc(N2CCC3(C=Cc4ccccc43)CC2)ccc1-c1ccc(F)c(COc2ccc3c(c2)C[C@H]2[C@H](C(=O)O)[C@@H]32)c1` [Example 40]: the EC50 turned out to be 519 nM at Human GPR40 [3] and 32 nM on Human GPR40 [2].

Turning to `Cc1nc(N2CCC(O)CC2)ccc1-c1ccc(F)c(COc2ccc3c(c2)C[C@H]2[C@H](C(=O)O)[C@@H]32)c1` [Example 41, (1S,1aS,6aR)-4-((2-fluoro-5-(6-(4-hydroxypiperidin-1-yl)-2-methylpyridin-3-yl)benzyl)oxy)-1,1a,6,6a-tetrahydrocyclopropa[a]indene-1-carboxylic acid], the EC50 at Human GPR40 [3] stood at 6 nM; at Human GPR40 [2], 22.4 nM.

In the case of `Cc1nc(N2CCC(C(F)(F)F)CC2)ccc1-c1ccc(F)c(COc2ccc3c(c2)C[C@H]2[C@H](C(=O)O)[C@@H]32)c1` [Example 42, (1S,1aS,6aR)-4-((2-fluoro-5-(2-methyl-6-(4-(trifluoromethyl)piperidin-1-yl)pyridin-3-yl)benzyl)oxy)-1,1a,6,6a-tetrahydrocyclopropa[a]indene-1-carboxylic acid], the EC50 at Human GPR40 [3] is 51 nM; at Human GPR40 [2], 12.8 nM.

For `Cc1nc(N2CCC(C)(O)CC2)ccc1-c1ccc(F)c(COc2ccc3c(c2)C[C@H]2[C@H](C(=O)O)[C@@H]32)c1` [Example 43, (1S,1aS,6aR)-4-((2-fluoro-5-(6-(4-hydroxy-4-methylpiperidin-1-yl)-2-methylpyridin-3-yl)benzyl)oxy)-1,1a,6,6a-tetrahydrocyclopropa[a]indene-1-carboxylic acid], the figures for the EC50 on Human GPR40 [3] and on Human GPR40 [2] were 13 nM and 75.5 nM, respectively.

Take `Cc1nc(N2CCC(C#N)(c3ccccc3)CC2)nc(C)c1-c1ccc(F)c(COc2ccc3c(c2)C[C@H]2[C@H](C(=O)O)[C@@H]32)c1` [Example 44, (1S,1aS,6aR)-4-((5-(2-(4-cyano-4-phenylpiperidin-1-yl)-4,6-dimethylpyrimidin-5-yl)-2-fluorobenzyl)oxy)-1,1a,6,6a-tetrahydrocyclopropa[a]indene-1-carboxylic acid]: the figures for the EC50 at Human GPR40 [3] and at Human GPR40 [2] were 221 nM and 23.2 nM, respectively.

For the molecule `Cc1nc(N2CCC(c3ccccc3)CC2)nc(C)c1-c1ccc(F)c(COc2ccc3c(c2)C[C@H]2[C@H](C(=O)O)[C@@H]32)c1F` [Example 45, (1S,1aS,6aR)-4-((3-(4,6-dimethyl-2-(4-phenylpiperidin-1-yl)pyrimidin-5-yl)-2,6-difluorobenzyl)oxy)-1,1a,6,6a-tetrahydrocyclopropa[a]indene-1-carboxylic acid], the results for the EC50 at Human GPR40 [3] and at Human GPR40 [2] were 853 nM and 29.4 nM, respectively.

Take `Cc1nc(N2CCC(C#N)(c3ccccc3)CC2)nc(C)c1-c1ccc(F)c(COc2ccc3c(c2)C[C@H]2[C@H](C(=O)O)[C@@H]32)c1F` [Example 46, (1S,1aS,6aR)-4-((3-(2-(4-cyano-4-phenylpiperidin-1-yl)-4,6-dimethylpyrimidin-5-yl)-2,6-difluorobenzyl)oxy)-1,1a,6,6a-tetrahydrocyclopropa[a]indene-1-carboxylic acid]: the values for the EC50 at Human GPR40 [3] and on Human GPR40 [2] were 629 nM and 38.7 nM, respectively.

As for `Cc1nc(N2CCC(CNS(C)(=O)=O)C2)ccc1-c1ccc(F)c(COc2ccc3c(c2)C[C@H]2[C@H](C(=O)O)[C@@H]32)c1` (stereo partly drawn) [Example 47, (1S,1aS,6aR)-4-((2-fluoro-5-(2-methyl-6-(3-(methylsulfonamidomethyl)pyrrolidin-1-yl)pyridin-3-yl)benzyl)oxy)-1,1a,6,6a-tetrahydrocyclopropa[a]indene-1-carboxylic acid], the EC50 at Human GPR40 [3] was determined as 16 nM; at Human GPR40 [2], 17.8 nM.

Turning to `Cc1nc(N2CCN(S(C)(=O)=O)CC2)ccc1-c1cccc(COc2ccc3c(c2)C[C@H]2[C@H](C(=O)O)[C@@H]32)c1` [Example 48], the EC50 on Human GPR40 [1] is 38.5 nM; at Human GPR40 [2], 76.7 nM.

`Cc1nc(OC2CCN(S(C)(=O)=O)CC2)ccc1-c1ccc(F)c(COc2ccc3c(c2)C[C@H]2[C@H](C(=O)O)[C@@H]32)c1` [Example 49, (1S,1aS,6aR)-4-((2-fluoro-5-(2-methyl-6-((1-(methylsulfonyl)piperidin-4-yl)oxy)pyridin-3-yl)benzyl)oxy)-1,1a,6,6a-tetrahydrocyclopropa[a]indene-1-carboxylic acid]: the EC50 at Human GPR40 [3] stood at 19.5 nM; at Human GPR40 [2], 28.9 nM.

As for `Cc1nc(N2CCC(CS(C)(=O)=O)CC2)ccc1-c1ccc(F)c(COc2ccc3c(c2)C[C@H]2[C@H](C(=O)O)[C@@H]32)c1` [Example 50, (1S,1aS,6aR)-4-((2-fluoro-5-(2-methyl-6-(4-((methylsulfonyl)methyl)piperidin-1-yl)pyridine-3-yl)benzyl)oxy)-1,1a,6,6a-tetrahydrocyclopropa[a]indene-1-carboxylic acid], the EC50 at Human GPR40 [3] amounted to 27 nM; at Human GPR40 [2], 58 nM.

As to `Cc1nc(N2CC(S(C)(=O)=O)C2)ccc1-c1ccc(F)c(COc2ccc3c(c2)C[C@H]2[C@H](C(=O)O)[C@@H]32)c1` [Example 51, (1S,1aS,6aR)-4-((2-fluoro-5-(2-methyl-6-(3-(methylsulfonyl)azetidin-1-yl)pyridin-3-yl)benzyl)oxy)-1,1a,6,6a-tetrahydrocyclopropa[a]indene-1-carboxylic acid], the EC50 came to 26.3 nM at Human GPR40 [3] and 23.3 nM on Human GPR40 [2].

With `Cc1c(-c2ccc(F)c(COc3ccc4c(c3)C[C@H]3[C@H](C(=O)O)[C@@H]43)c2)ccc2nc(-c3ccncc3)sc12` [Example 52, (1S,1aS,6aR)-4-((2-fluoro-5-(7-methyl-2-(pyridin-4-yl)benzo[d]thiazol-6-yl)benzyl)oxy)-1,1a,6,6a-tetrahydrocyclopropa[a]indene-1-carboxylic acid], the EC50 amounted to 30 nM at Human GPR40 [3] and 35.4 nM at Human GPR40 [2].

Take `Cc1cc(-c2ccc(F)c(COc3ccc4c(c3)C[C@H]3[C@H](C(=O)O)[C@@H]43)c2)c2c(cnn2C)n1` [Example 53, 7-(3-((((1S,1aS,6aR)-1-carboxy-1,1a,6,6a-tetrahydrocyclopropa[a]inden-4-yl)oxy)methyl)-4-fluorophenyl)-1,5-dimethyl-1H-pyrazolo[4,3-b]pyridin-4-ium formate]: the EC50 worked out at 39 nM on Human GPR40 [3] and 51.8 nM on Human GPR40 [2].

Take `CS(=O)(=O)CCCOc1ncc(-c2ccc(F)c(COc3ccc4c(c3)C[C@H]3[C@H](C(=O)O)[C@@H]43)c2)cc1C(F)(F)F` [Example 54, (1S,1aS,6aR)-4-((2-Fluoro-5-(6-(3-(methylsulfonyl)propoxy)-5-(trifluoromethyl)pyridin-3-yl)benzyl)oxy)-1,1a,6,6a-tetrahydrocyclopropa[a]indene-1-carboxylic acid]: the EC50 worked out at 236 nM at Human GPR40 [3] and 50.7 nM at Human GPR40 [2].

As for `O=C(O)[C@H]1[C@@H]2Cc3cc(OCc4cc(-c5cnc(NCC6CCOCC6)cc5C(F)(F)F)ccc4F)ccc3[C@@H]21` [Example 55, (1S,1aS,6aR)-4-((2-fluoro-5-(6-(((tetrahydro-2H-pyran-4-yl)methyl)amino)-4-(trifluoromethyl)pyridin-3-yl)benzyl)oxy)-1,1a,6,6a-tetrahydrocyclopropa[a]indene-1-carboxylic acid], the EC50 on Human GPR40 [3] stood at 5.5 nM; on Human GPR40 [2] it was 35.4 nM.

Values taken from patent publication US9834563B2 (Merck Sharp & Dohme Corp., priority 2013, dated 2017).
